# Reference: patent US10752587B2, “Homobispiperidinyl derivatives as liver X receptor beta agonists, compositions and their use” (Merck Sharp & Dohme Corp., priority 2015, dated 2020)
# Key:
# [1] = biological target: T1, glutathione-S-transferase (GST) tagged LXRbeta LBD (ligand binding domain) (Homo sapiens, UniProt P55055); test: LanthaScreen TR-FRET Liver X Receptor Coactivator Assay, co-activator recruitment to LXRbeta LBD; type: biochemical; details: for Emax: efficacy at max dose, in relation to reference dual agonist T0901317, read-out: LXR beta Activity @ max dose (%); for EC50: potency (Inflection Point, IP), co-activator recruitment to LXRbeta LBD, in relation to T0901317, read-out: LXR beta IP
# T1 construct: purchased Invitrogen pv4658.pps
# T1 sequence (P55055 222-460 limits assumed): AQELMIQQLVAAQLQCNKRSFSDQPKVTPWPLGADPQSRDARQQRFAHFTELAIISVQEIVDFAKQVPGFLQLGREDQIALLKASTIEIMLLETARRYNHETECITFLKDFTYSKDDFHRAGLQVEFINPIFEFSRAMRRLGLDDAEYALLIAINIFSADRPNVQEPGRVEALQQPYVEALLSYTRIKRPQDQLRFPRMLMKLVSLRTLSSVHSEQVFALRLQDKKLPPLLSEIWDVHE
# Experimental: (§1) Potency (Inflection Point, IP) and efficacy (Emax) are evaluated via compound-induced co-activator recruitment to glutathione-S-transferase (GST) tagged LXRbeta and LXRalpha LBD (ligand binding domain) proteins in relation to reference dual agonist compound T0901317 (N-(2,2,2-Trifluoroethyl)-N-[4-[2,2,2-trifluoro-1-hydroxy-1-(trifluoromethyl)ethyl] phenyl] benzenesulfonamide) using the LanthaScreen™ TR-FRET Liver X Receptor Coactivator Assays according to manufacturer's instructions (Invitrogen catalog number pv4658.pps and pv4655). While running the LanthaScreen™ TR-FRET Liver X Receptor Coactivator Assay, LXR alpha-LBD or LXR beta-LBD was added to ligand test compounds followed by addition of a mixture of a fluorescein-labelled coactivator peptide and terbium-conjugated anti-GST antibody. After an incubation period at room temperature, TR-FRET (time-resolved fluorescence resonance energy transfer) was measured using a filter-based instrument capable of TR-FRET, e.g. PerkinElmer Envision.
# [2] = biological target: T2, glutathione-S-transferase (GST) tagged LXRalpha LBD (ligand binding domain) (Homo sapiens, UniProt Q13133); test: LanthaScreen TR-FRET Liver X Receptor Coactivator Assay, co-activator recruitment to LXRalpha LBD; type: biochemical; details: for Emax: efficacy at max dose, in relation to reference dual agonist T0901317, read-out: LXR alpha Activity @ max dose (%); for LXR alpha IP (nM) / EC50: potency (Inflection Point, IP), co-activator recruitment to LXRalpha LBD, in relation to T0901317; for EC50: read-out: LXR alpha IP
# T2 construct: purchased Invitrogen pv4655
# T2 sequence (Q13133 209-447 limits assumed): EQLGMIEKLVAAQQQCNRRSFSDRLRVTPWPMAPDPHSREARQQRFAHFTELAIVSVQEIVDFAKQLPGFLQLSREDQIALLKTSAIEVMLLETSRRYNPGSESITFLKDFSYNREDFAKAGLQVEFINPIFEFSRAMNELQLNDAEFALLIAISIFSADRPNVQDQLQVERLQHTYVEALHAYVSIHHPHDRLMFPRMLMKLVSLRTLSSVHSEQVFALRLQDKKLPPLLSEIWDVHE
# Experimental: as §1
SMILES,Emax [1],EC50 [1],Emax [2],LXR alpha IP (nM) [2],EC50 [2]
"COc1cccc([C@@](O)(C(=O)N2CC(CC3CCN(c4ccc(C(=O)N(C)C)c(Cl)c4)CC3)C2)C(F)F)c1 [Example 2-70, 2-chloro-4-[4-({1-[(2R)-3,3-difluoro-2-hydroxy-2-(3-methoxy-phenyl)propanoyl]azetidin-3-yl}methyl)piperidin-1-yl]-N,N-dimethyl-benzamide]",48%,92 nM,2%,NO IP,
"CC[C@](O)(C(=O)N1CCC(CC2CCN(c3ccc(C(=O)N(C)C)c(Cl)c3)CC2)CC1)c1ccccc1 [Example 2-110, 2-chloro-4-[4-({1-[(2R)-2-hydroxy-2-phenylbutanoyl]piperidin-4-yl}methyl)piperidin-1-yl]-N,N-dimethyl-benzamide]",50%,54 nM,17%,NO IP,
"COCCN(C)C(=O)c1ccc(N2CCC(OC3CCN(C(=O)[C@](O)(c4ccccc4)C(F)(F)F)CC3)CC2)cc1Cl [Example 4-14, 2-chloro-N-(2-methoxyethyl)-N-methyl-4-[4-({1-[(2R)-3,3,3-trifluoro-2-hydroxy-2-phenylpropanoyl]piperidin-4-yl}oxy)piperidin-1-yl]benzamide]",88%,117 nM,42%,,2170 nM
"CCOc1cccc([C@@](O)(C(=O)N2CC(CC3CCN(c4ccc(C(=O)N(C)C)c(Cl)n4)CC3)C2)C(F)(F)F)c1 [Example 7-44, 2-chloro-6-[4-({1-[(2R)-2-(3-ethoxyphenyl)-3,3,3-trifluoro-2-hydroxypropanoyl]azetidin-3-yl}methyl)piperidin-1-yl]-N,N-dimethylpyridine-3-carboxamide]",75%,34 nM,8%,NO IP,
"CNC(=O)c1ccc(N2CCC(CC3CCN(C(=O)[C@](O)(c4cccc(OC(F)(F)F)c4)C(F)(F)F)CC3)CC2)nc1Cl [Example 7-139, 2-chloro-N-methyl-6-{4-[(1-{(2R)-3,3,3-trifluoro-2-hydroxy-2-[3-(trifluoromethoxy)phenyl]propanoyl}piperidin-4-yl)methyl]piperidin-1-yl}pyridine-3-carboxamide]",91%,26 nM,26%,,223 nM
"CN(C)C(=O)c1ccc(N2CCC(CC3CCN(C(=O)c4c(F)cccc4F)CC3)CC2)cc1Cl [Example 2-8, 2-chloro-4-[4-({1-[(2,6-difluorophenyl)carbonyl]piperidin-4-yl}methyl)piperidin-1-yl]-N,N-dimethyl-benzamide]",40%,352 nM,0%,NO IP,
"CN(C)C(=O)c1ccc(N2CCC(CC3CCN(C(=O)[C@](O)(c4csc5ccccc45)C(F)(F)F)CC3)CC2)cc1Cl (stereo in doubt) [Example 2-169, 4-[4-({1-[2-(1-benzothiophen-3-yl)-3,3,3-trifluoro-2-hydroxy-propanoyl]piperidin-4-yl}methyl)piperidin-1-yl]-2-chloro-N,N-dimethyl-benzamide]",71%,11 nM,17%,NO IP,
"COc1cccc([C@@](O)(C(=O)N2CCC(CC3CCN(c4ccc(C(=O)N(C)C)c(Cl)c4)CC3)CC2)C(F)(F)F)n1 (stereo in doubt) [Example 2-165, 2-chloro-N,N-dimethyl-4-[4-({1-[3,3,3-trifluoro-2-hydroxy-2-(6-methoxy-pyridin-2-yl)propanoyl]piperidin-4-yl}methyl)piperidin-1-yl]benzamide]",108%,2.5 nM,18%,NO IP,
"Cc1cc(N2CCC(CC3CCN(C(=O)[C@](O)(c4cc(F)cc(Cl)c4)C(F)(F)F)CC3)CC2)ccc1C(=O)N(C)C [Example 2-153, 4-[4-({1-[(2R)-2-(3-chloro-5-fluorophenyl)-3,3,3-trifluoro-2-hydroxy-propanoyl]piperidin-4-yl}methyl)piperidin-1-yl]-N,N,2-trimethyl-benzamide]",95%,8 nM,41%,,123 nM
"CN(C)C(=O)c1ccc(N2CCC(CC3CCN(C(=O)C(O)(c4ccc(C(F)(F)F)cc4)C(F)(F)F)CC3)CC2)cc1Cl (stereo not drawn) [Example 2-16, 2-chloro-N,N-dimethyl-4-{4-[(1-{3,3,3-trifluoro-2-hydroxy-2-[4-(trifluoromethyl)phenyl]propanoyl}piperidin-4-yl)methyl]piperidin-1-yl} benzamide]",15%,598 nM,0%,NO IP,
"CCOc1cccc([C@@](O)(C(=O)N2CCC(CC3CCN(c4ccc(C(=O)N(C)C)c(Cl)c4)CC3)CC2)C(F)F)c1 [Example 2-108, 2-chloro-4-[4-({1-[(2R)-2-(3-ethoxy-phenyl)-3,3-difluoro-2-hydroxy-propanoyl]piperidin-4-yl}methyl)piperidin-1-yl]-N,N-dimethyl-benzamide]",10%,33 nM,0%,NO IP,
"CN(C)C(=O)c1ccc(N2CCC(CC3(C)CCN(C(=O)[C@](O)(c4cc(F)cc(Cl)c4)C(F)(F)F)CC3)CC2)cc1Cl [Example 2-54, 2-chloro-4-[4-({1-[(2R)-2-(3-chloro-5-fluorophenyl)-3,3,3-trifluoro-2-hydroxy-propanoyl]-4-methylpiperidin-4-yl}methyl)piperidin-1-yl]-N,N-dimethyl-benzamide]",79%,4 nM,23%,,38 nM
"CNC(=O)c1ccc(N2CCC(OC3CCN(C(=O)C(O)(c4cccc(C)c4)C(F)(F)F)CC3)CC2)cc1Cl (stereo not drawn) [Example 7-29, 2-chloro-N-methyl-4-[4-({1-[3,3,3-trifluoro-2-hydroxy-2-(3-methylphenyl)propanoyl]piperidin-4-yl}oxy)piperidin-1-yl]benzamide]",102%,176 nM,25%,,3240 nM
"CN(C)C(=O)c1ccc(N2CCC(CC3CCN(C(=O)[C@](O)(c4ccccc4)C(F)(F)C(F)(F)F)CC3)CC2)nc1Cl [Example 7-60, 2-chloro-N,N-dimethyl-6-[4-({1-[(2R)-3,3,4,4,4-pentafluoro-2-hydroxy-2-phenylbutanoyl]piperidin-4-yl}methyl)piperidin-1-yl]pyridine-3-carboxamide]",153%,7 nM,60%,,148 nM
"CNC(=O)c1ccc(N2CCC(OC3CCN(C(=O)C4(c5ccccc5F)CCCC4)CC3)CC2)cc1Cl [Example 7-27, 2-chloro-4-{4-[(1-{[1-(2-fluorophenyl)cyclopentyl]carbonyl}piperidin-4-yl)oxy]piperidin-1-yl}-N-methylbenzamide]",113%,446 nM,27%,,4390 nM
"CNC(=O)c1ccc(N2CCC(CC3CCN(C(=O)[C@](O)(c4cccc(OC(C)C)c4)C(F)(F)F)CC3)CC2)cc1Cl [Example 7-121, 2-chloro-N-methyl-4-{4-[(1-{(2R)-3,3,3-trifluoro-2-hydroxy-2-[3-(1-methylethoxy)phenyl]propanoyl}piperidin-4-yl)methyl]piperidin-1-yl}benzamide]",69%,21 nM,11%,NO IP,
"CNC(=O)c1ccc(N2CCC(OC3CCN(C(=O)C(O)(c4cccc(C(F)(F)F)c4)C(F)(F)F)CC3)CC2)cc1Cl (stereo not drawn) [Example 7-28, 2-chloro-N-methyl-4-{4-[(1-{3,3,3-trifluoro-2-hydroxy-2-[3-(trifluoromethyl)phenyl]propanoyl}piperidin-4-yl)oxy]piperidin-1-yl} benzamide]",105%,243 nM,28%,,2020 nM
"COc1cccc([C@@](O)(C(=O)N2CCC(OC3CCN(c4ccc(C(=O)N(C)C)c(OC)n4)CC3)CC2)C(F)(F)F)c1 [Example 7-154, 2-methoxy-N,N-dimethyl-6-[4-({1-[(2R)-3,3,3-trifluoro-2-hydroxy-2-(3-methoxyphenyl)propanoyl]piperidin-4-yl}oxy)piperidin-1-yl]pyridine-3-carboxamide]",93%,47 nM,34%,,2940 nM
